Activity calls are given as the source filed them. No cut-off for these calls is given here.

What is called MIC is the least concentration at which growth counts as inhibited. In general, EC50 refers to the concentration needed to bring the measured effect to its halfway point. Low values mean an effect from little substance, high ones a need for much substance.

For data set [1], the system named is [Candida] auris. Nature of the data set: Antifungal activity against Candida auris CBS12774 assessed as effect on cell size at 1 ug/ml measured after 6 hrs by microscopy based analysis. The class given is functional, organism-based. The following applies: Candidozyma auris, dose 1.0 µg/ml.
Data set [2] relates to Candida albicans. Kind of data set: Fungistatic activity against Candida albicans SC5314 at 1 ug/ml incubated for 3 hrs in presence of tridemorph by SYTOX staining based analysis. The following applies: dose 1.0 µg/ml. The class given is functional, organism-based.
Data set [3] deals with Candida albicans. Nature of the data set: Antibiofilm activity against Candida albicans CA14-TDH3-GFP at 0.5 to 2 ug/ml incubated for 24 hrs by XTT reduction assay. The following applies: dose 0.5-2 µg/ml. The class given is functional, organism-based. Background: Tetrazolium assays rely on reduction of a dye to a coloured formazan, in cell work by metabolically active cells.

Data set [4] relates to Candida albicans. Kind of data set: Antifungal activity against Candida albicans SC5314 infected in Balb/C mouse candidiasis model assessed as filamentation defect at 0.5 % administered topically and measured after 72 hrs in presence of tridemorph by PAS staining based analysis. It counts as functional, organism-based.
Data set [5] deals with [Candida] auris. Kind of data set: Antifungal activity against Candida auris CBS12774 assessed as effect on cell structure at 1 ug/ml measured after 6 hrs by microscopy based analysis. The class given is functional, organism-based. The following applies: Candidozyma auris, dose 1.0 µg/ml.
The test system of data set [6] is Candida albicans. Kind of data set: Antifungal activity against Candida albicans SC5314 assessed as inhibition of hyphae growth measured after 30 passages. The class given is functional, organism-based.
Data set [7] concerns Nakaseomyces glabratus. Kind of data set: Antifungal activity against Candida glabrata CG2 assessed as inhibition of fungal growth incubated for 24 hrs by CLSI protocol based broth microdilution method. It counts as functional. In general terms: In broth dilution the organism is exposed to a series of concentrations in liquid medium.
Data set [8] deals with T1, Sterol 24-C-methyltransferase (Candida albicans (strain SC5314 / ATCC MYA-2876) (Yeast)) (UniProt O74198).
T1 sequence (whole entry): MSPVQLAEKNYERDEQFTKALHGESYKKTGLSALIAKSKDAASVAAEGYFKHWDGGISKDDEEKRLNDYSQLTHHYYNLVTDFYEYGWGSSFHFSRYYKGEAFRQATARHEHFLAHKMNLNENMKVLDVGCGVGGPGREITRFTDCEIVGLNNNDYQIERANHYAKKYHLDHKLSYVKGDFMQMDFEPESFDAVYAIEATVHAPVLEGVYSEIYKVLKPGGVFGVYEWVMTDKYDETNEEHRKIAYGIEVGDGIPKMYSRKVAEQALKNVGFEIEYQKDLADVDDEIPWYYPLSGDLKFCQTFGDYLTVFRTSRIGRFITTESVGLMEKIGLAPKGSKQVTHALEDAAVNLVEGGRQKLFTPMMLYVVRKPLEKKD
Kind of data set: Inhibition of Candida albicans SC5314 Erg6 assessed as fold increase in zymosterol content at 1 ug/ml incubated for 12 hrs by GC-MS analysis. Conditions: dose 1.0 µg/ml.

Data set [9] relates to Candida albicans. Nature of the data set: Downregulation of UME6 expression in Candida albicans SC5314 at 1 ug/ml incubated for 6 hrs by qPCR analysis. It counts as functional. The following applies: dose 1.0 µg/ml.
Data set [10] deals with Candida albicans. Nature of the data set: Antifungal activity against Candida albicans SC5314 assessed as inhibition of hyphae growth measured after 6 hrs cultured under RPMI1640 medium/5% serum by microscopy based analysis. The class given is functional, organism-based. Conditions: dose 0.25-1 µg/ml.
Data set [11] relates to Candida albicans. Kind of data set: Downregulation of ALS3 expression in Candida albicans SC5314 at 1 ug/ml incubated for 6 hrs by qPCR analysis. The following applies: dose 1.0 µg/ml. The class given is functional.
The subject of data set [12] is Candida parapsilosis. Kind of data set: Antifungal activity against Candida parapsilosis CP1 assessed as effect on structure at 1 ug/ml measured after 6 hrs by microscopy based analysis. It counts as functional, organism-based. The following applies: dose 1.0 µg/ml.
The subject of data set [13] is Candida albicans. Kind of data set: Antifungal activity against Candida albicans SC5314 assessed as inhibition of hyphae growth measured after 5 days cultured under solid spider agar medium and 10mM GlcNAc by microscopy based analysis. The class given is functional, organism-based. Conditions: dose 0.25-1 µg/ml, time 5.0 day.
Data set [14] concerns Nakaseomyces glabratus. Nature of the data set: Antifungal activity against Candida glabrata CG2 assessed as effect on cell structure at 1 ug/ml measured after 6 hrs by microscopy based analysis. It counts as functional, organism-based. Conditions: dose 1.0 µg/ml.
Data set [15] relates to Candida albicans. Kind of data set: Antifungal activity against Candida albicans SC5314 infected in Balb/C mouse candidiasis model assessed as filamentation defect at 0.5 % administered topically and measured after 72 hrs in presence of terbinafine by PAS staining based analysis. The class given is functional, organism-based.
Data set [16] concerns Candida parapsilosis. Kind of data set: Antifungal activity against Candida parapsilosis CP1 assessed as inhibition of hyphae formation at 1 ug/ml measured after 6 hrs by microscopy based analysis. The class given is functional, organism-based. Conditions: dose 1.0 µg/ml.
In data set [17] the test system is Candida albicans. Nature of the data set: Antifungal activity against Candida albicans SC5314 infected in Balb/C mouse candidiasis model assessed as appearance of inflammatory infiltrates at 0.5 % administered topically and measured after 72 hrs in presence of terbinafine by H and E staining based analysis. The class given is functional, organism-based.
For data set [18], the system named is Candida albicans. Kind of data set: Antifungal activity against Candida albicans SC5314 assessed as inhibition of hyphae growth measured after 6 hrs cultured under RPMI1640 medium by microscopy based analysis. The class given is functional, organism-based. Conditions: dose 0.25-1 µg/ml.
Data set [19] is described as follows: Cytotoxicity against human BEAS-2B cells incubated for 48 hrs by CCK-8 method. The class given is toxicity, cell-based.
Data set [20] relates to Candida albicans. Kind of data set: Upregulation of PDE2 gene level in Candida albicans SC5314 at 1 ug/ml incubated for 6 hrs by qPCR analysis. Conditions: dose 1.0 µg/ml. The class given is functional.
A short description of data set [21]: Hemolytic activity in mouse RBC assessed as hemolysis at 2 to 32 ug/ml incubated for 60 mins by absorbance based analysis relative to control. It counts as toxicity, cell-based, Erythrocyte. Conditions: mouse red blood cells, at 2 to 32 µg/mL, dose 2-32 µg/ml, read-out: Activity.

As to `Cc1c(-n2c(-c3ccc4ccccc4c3)cs/c2=N\c2ccccc2)c(=O)n(-c2ccccc2)n1C`, the outcome (in data set [Candida] auris [1]; in [Candida] auris [5]; in the data set on Candida parapsilosis [12]; with Nakaseomyces glabratus [14]; in the data set on Candida albicans [17]) was inactive. Besides, the outcome in the data set on Candida albicans [2], in the data set with Candida albicans [3], in the data set on Candida albicans [4], in the data set with Candida albicans [6], in the data set on Candida albicans [9] and in the data set with Candida albicans [11] was Active. The outcome in the data set with Candida albicans [15], with Candida parapsilosis [16] and in the data set with Candida albicans [20] was Active. The minimal inhibitory concentration (MIC) in the data set on Nakaseomyces glabratus [7] was over 128 µg/mL. In addition, in data set [8], the fold change (FC) worked out at 11. For the same molecule, the Activity result with Candida albicans [10], with Candida albicans [13] and in the data set on Candida albicans [18] was “Dose-Dependent Effect” throughout. This molecule displayed an EC50 at 48 h in [19] of over 50 µg/mL. Also, in data set [21], the hemolysis at 1 h is under 1%.

The values above are taken from ChEMBL document CHEMBL5512671, “Structure-Based Optimization of Novel Sterol 24-C-Methyltransferase Inhibitors for the Treatment of Candida albicans Infections” (J Med Chem, 2024).
